Results as given in patent US20250241891A1, “TREATMENT OF ANXIETY” (GH RESEARCH IRELAND LIMITED, priority 2022, published 2025).

Test system: patients with postpartum depression (PPD)
Assay: Clinical trial of inhaled 5-MeO-DMT in postpartum depression (MADRS, BPRS, BIMF, PES, safety)
Method: The single-arm, open-label clinical trial will involve 15 adult female patients with clinically diagnosed postpartum depression (PPD).
The second dose (12 mg) will only be administered if: • a. […] The 6 mg dose was safe and well-tolerated according to the investigator, • c. Any psychoactive effects (PsE) of the prior dose have subsided, and • d. Pre-dose vital parameters and forced expiratory volume in one second (FEV1) are in normal range, or if outside of the normal range, are not clinically significant according to the investigator. • 3. Similarly, a third dose (18 mg) will only be administered if: • a. […] The 12 mg dose was safe and well-tolerated according to the investigator, and • c. Any PsE of the prior dose have subsided, and • d. Pre-dose vital parameters and forced expiratory volume in one second (FEV1) are in normal range, or if outside of the normal range, are not clinically significant according to the investigator.
The patients will be assessed for a peak psychedelic experience (based on a patient-scored visual analogue scale, the PE scale), sedation, and other endpoints after dosing. Follow-up visits are planned for Day 1, and Day 7 after the dosing day.
The following criteria must be met by all patients considered for clinical trial participation: • 1. Is female and in the age range between 18 and 45 years (inclusive) at screening. • 2. Has a body mass index (BMI) in the range of 18.5 and 35 kg/m^2 (inclusive) at screening. • 3. Meets the trial criteria for PPD as assessed by a trial psychiatrist or registered psychologist: • a. Diagnosis of Major Depressive Disorder without psychotic features, confirmed by the Mini-International Neuropsychiatric Interview (MINI), with peri-partum onset that began no earlier than gestation and no later than the first 4 weeks postpartum. • b. Has a Montgomery-Åsberg Depression Rating Scale (MADRS) total score of equal to or greater than 28 at screening and pre-dose on Day 0. • 6. […] Patients must have a negative pregnancy test at screening and on the pre-test day (Day −1). • 5. Is willing to delay start of other antidepressant or anxiety medication until after the end of the trial at Day 7 and agrees to keep any psychotherapy unchanged during the trial.
A potential patient who meets any of the following key exclusion criteria will be excluded from participation in this trial: • 1. Has, based on history, psychiatric assessment, and evaluation of the MINI, a current or prior diagnosis of bipolar disorder, a manic or hypomanic episode, a psychotic disorder, Major Depressive Disorder (MDD) or other mood disorder with psychotic features, obsessive compulsive disorder, post-traumatic stress disorder (PTSD), autism spectrum disorder, borderline personality disorder, schizophrenia, delusional disorder, paranoid personality disorder, schizoaffective disorder, clinically significant intellectual disability, or any other psychiatric comorbidity that renders the patient unsuitable for the trial according to the investigator's judgment. • 2. Has one or more first or second degree relatives with a current or previously diagnosed bipolar disorder, psychotic disorder or other mood disorder (including MDD) with psychotic features. • 3. Is in the judgement of a trial psychiatrist or registered psychologist, at significant risk for suicide based on history, psychiatric assessment, and evaluation of suicidal ideation and suicidal behaviour based on the Columbia-Suicide Severity Rating Scale (C-SSRS). • 4. Has taken anti-depressive medication within 14 days or 5 half-lives (whichever is longer) prior to dosing (exception: within the last 5 weeks in the case of fluoxetine). • 5.

[1] = PPD n=1, IDR 6+12 mg inhaled, day 1, baseline 5
[2] = PPD n=1, IDR 6+12 mg inhaled, day 1, baseline 6
[3] = PPD n=1, IDR 6+12 mg inhaled, day 1, baseline 7
[4] = PPD n=1, IDR 6+12 mg inhaled, day 7, baseline 0
[5] = PPD n=1, IDR 6+12 mg inhaled, day 7, baseline 1
[6] = PPD n=1, IDR 6+12 mg inhaled, day 7, baseline 2
[7] = PPD n=1, IDR 6+12 mg inhaled, day 7, baseline 3
[8] = PPD n=1, IDR 6+12 mg inhaled, day 7, baseline 4
[9] = PPD n=1, IDR 6+12 mg inhaled, day 7, baseline 5
[10] = PPD n=1, IDR 6+12 mg inhaled, day 7, baseline 6
[11] = PPD n=1, IDR 6+12 mg inhaled, day 7, baseline 7
[12] = PPD n=1, IDR 6+12 mg inhaled, discharge, baseline 1
[13] = PPD n=1, IDR 6+12 mg inhaled, discharge, baseline 2
[14] = PPD n=1, IDR 6+12 mg inhaled, discharge, baseline 5
[15] = PPD n=1, IDR 6+12 mg inhaled, discharge, baseline 6
[16] = PPD n=1, IDR 6+12 mg inhaled, discharge, baseline 7

Question: With `COc1ccc2[nH]cc(CCN(C)C)c2c1` [5-MeO-DMT] as the molecule, how does the “MADRS Reduced Sleep improvement” value [1] read?
Answer: 5

Question: What about the “MADRS Reduced Sleep score” value [1] of the same molecule?
Answer: 0

Question: What about the “BPRS Depressive Mood improvement” value [2] of the same molecule?
Answer: 5

Question: What about the “BPRS Depressive Mood score” value [2] of the same molecule?
Answer: 1

Question: What about the “BPRS Guilt Feelings score” value [2] of the same molecule?
Answer: 1

Question: What about the “BPRS Guilt feelings improvement” value [2] of the same molecule?
Answer: 5

Question: What about the “BPRS Somatic Concern improvement” value [2] of the same molecule?
Answer: 5

Question: What about the “BPRS Somatic Concern score” value [2] of the same molecule?
Answer: 1

Question: And the “BPRS Tension improvement” value [2]?
Answer: 5

Question: What about the “BPRS Tension score” value [2] of the same molecule?
Answer: 1

Question: And the “BPRS Anxiety improvement” value [3]?
Answer: 6

Question: What about the “BPRS Anxiety score” value [3] of the same molecule?
Answer: 1

Question: What about the “MADRS Concentration Difficulties improvement” value [4] of the same molecule?
Answer: 0

Question: What about the “MADRS Concentration Difficulties score” value [4] of the same molecule?
Answer: 0

Question: And the “MADRS Reduced appetite improvement” value [4]?
Answer: 0

Question: And the “MADRS Reduced appetite score” value [4]?
Answer: 0

Question: And the “MADRS Suicidal Thoughts improvement” value [4]?
Answer: 0

Question: What about the “MADRS Suicidal Thoughts score” value [4] of the same molecule?
Answer: 0

Question: And the “BPRS Blunted Affect score” value [5]?
Answer: 1

Question: What about the “BPRS Blunted affect improvement” value [5] of the same molecule?
Answer: 0

Question: And the “BPRS Conceptual disorganization improvement” value [5]?
Answer: 0

Question: What about the “BPRS Conceptual disorganization score” value [5] of the same molecule?
Answer: 1

Question: What about the “BPRS Disorientation improvement” value [5] of the same molecule?
Answer: 0

Question: What about the “BPRS Disorientation score” value [5] of the same molecule?
Answer: 1

Question: And the “BPRS Grandiosity improvement” value [5]?
Answer: 0

Question: What about the “BPRS Grandiosity score” value [5] of the same molecule?
Answer: 1

Question: And the “BPRS Hallucinatory behaviour improvement” value [5]?
Answer: 0

Question: And the “BPRS Hallucinatory behaviour score” value [5]?
Answer: 1

Question: What about the “BPRS Hostility improvement” value [5] of the same molecule?
Answer: 0

Question: What about the “BPRS Hostility score” value [5] of the same molecule?
Answer: 1

Question: And the “BPRS Mannerisms and Posturing improvement” value [5]?
Answer: 0

Question: And the “BPRS Mannerisms and Posturing score” value [5]?
Answer: 1

Question: And the “BPRS Motor retardation improvement” value [5]?
Answer: 0

Question: What about the “BPRS Motor retardation score” value [5] of the same molecule?
Answer: 1

Question: What about the “BPRS Suspiciousness improvement” value [5] of the same molecule?
Answer: 0

Question: And the “BPRS Suspiciousness score” value [5]?
Answer: 1

Question: And the “BPRS Uncooperativeness improvement” value [5]?
Answer: 0

Question: And the “BPRS Uncooperativeness score” value [5]?
Answer: 1

Question: What about the “BPRS Unusual Thought Content improvement” value [5] of the same molecule?
Answer: 0

Question: What about the “BPRS Unusual Thought Content score” value [5] of the same molecule?
Answer: 1

Question: And the “BPRS Excitement improvement” value [6]?
Answer: 1

Question: And the “BPRS Excitement score” value [6]?
Answer: 1

Question: And the “MADRS Inability to Feel improvement” value [7]?
Answer: 3

Question: What about the “MADRS Inability to Feel score” value [7] of the same molecule?
Answer: 0

Question: And the “MADRS Lassitude improvement” value [7]?
Answer: 3

Question: And the “MADRS Lassitude score” value [7]?
Answer: 0

Question: What about the “MADRS Pessimistic Thoughts improvement” value [8] of the same molecule?
Answer: 4

Question: And the “MADRS Pessimistic Thoughts score” value [8]?
Answer: 0

Question: And the “MADRS Reported sadness improvement” value [8]?
Answer: 4

Question: What about the “MADRS Reported sadness score” value [8] of the same molecule?
Answer: 0

Question: What about the “BPRS Emotional Withdrawal score” value [9] of the same molecule?
Answer: 1

Question: What about the “BPRS Emotional withdrawal improvement” value [9] of the same molecule?
Answer: 4

Question: What about the “MADRS Apparent sadness improvement” value [9] of the same molecule?
Answer: 5

Question: And the “MADRS Apparent sadness score” value [9]?
Answer: 0

Question: What about the “MADRS Inner Tension improvement” value [9] of the same molecule?
Answer: 4

Question: What about the “MADRS Inner Tension score” value [9] of the same molecule?
Answer: 1

Question: And the “MADRS Reduced Sleep improvement” value [9]?
Answer: 5

Question: What about the “MADRS Reduced Sleep score” value [9] of the same molecule?
Answer: 0

Question: What about the “BPRS Depressive Mood improvement” value [10] of the same molecule?
Answer: 5

Question: And the “BPRS Depressive Mood score” value [10]?
Answer: 1

Question: What about the “BPRS Guilt Feelings score” value [10] of the same molecule?
Answer: 1

Question: What about the “BPRS Guilt feelings improvement” value [10] of the same molecule?
Answer: 5

Question: And the “BPRS Somatic Concern improvement” value [10]?
Answer: 5

Question: And the “BPRS Somatic Concern score” value [10]?
Answer: 1

Question: And the “BPRS Tension improvement” value [10]?
Answer: 5

Question: And the “BPRS Tension score” value [10]?
Answer: 1

Question: And the “BPRS Anxiety improvement” value [11]?
Answer: 6

Question: What about the “BPRS Anxiety score” value [11] of the same molecule?
Answer: 1

Question: And the “BPRS Blunted Affect score” value [12]?
Answer: 1

Question: And the “BPRS Blunted affect improvement” value [12]?
Answer: 0

Question: And the “BPRS Conceptual disorganization improvement” value [12]?
Answer: 0

Question: What about the “BPRS Conceptual disorganization score” value [12] of the same molecule?
Answer: 1

Question: What about the “BPRS Disorientation improvement” value [12] of the same molecule?
Answer: 0

Question: And the “BPRS Disorientation score” value [12]?
Answer: 1

Question: And the “BPRS Grandiosity improvement” value [12]?
Answer: 0

Question: And the “BPRS Grandiosity score” value [12]?
Answer: 1

Question: What about the “BPRS Hallucinatory behaviour improvement” value [12] of the same molecule?
Answer: 0

Question: And the “BPRS Hallucinatory behaviour score” value [12]?
Answer: 1

Question: What about the “BPRS Hostility improvement” value [12] of the same molecule?
Answer: 0

Question: And the “BPRS Hostility score” value [12]?
Answer: 1

Question: And the “BPRS Mannerisms and Posturing improvement” value [12]?
Answer: 0

Question: And the “BPRS Mannerisms and Posturing score” value [12]?
Answer: 1

Question: And the “BPRS Motor retardation improvement” value [12]?
Answer: 0

Question: And the “BPRS Motor retardation score” value [12]?
Answer: 1

Question: What about the “BPRS Suspiciousness improvement” value [12] of the same molecule?
Answer: 0

Question: And the “BPRS Suspiciousness score” value [12]?
Answer: 1

Question: And the “BPRS Uncooperativeness improvement” value [12]?
Answer: 0

Question: And the “BPRS Uncooperativeness score” value [12]?
Answer: 1

Question: And the “BPRS Unusual Thought Content improvement” value [12]?
Answer: 0

Question: What about the “BPRS Unusual Thought Content score” value [12] of the same molecule?
Answer: 1

Question: And the “BPRS Excitement improvement” value [13]?
Answer: 1

Question: What about the “BPRS Excitement score” value [13] of the same molecule?
Answer: 1

Question: And the “BPRS Emotional Withdrawal score” value [14]?
Answer: 1

Question: What about the “BPRS Emotional withdrawal improvement” value [14] of the same molecule?
Answer: 4

Question: What about the “BPRS Depressive Mood improvement” value [15] of the same molecule?
Answer: 5

Question: What about the “BPRS Depressive Mood score” value [15] of the same molecule?
Answer: 1

Question: And the “BPRS Guilt Feelings score” value [15]?
Answer: 1

Question: What about the “BPRS Guilt feelings improvement” value [15] of the same molecule?
Answer: 5

Question: What about the “BPRS Somatic Concern improvement” value [15] of the same molecule?
Answer: 5

Question: And the “BPRS Somatic Concern score” value [15]?
Answer: 1

Question: And the “BPRS Tension score” value [15]?
Answer: 1

Question: And the “BPRS Anxiety improvement” value [16]?
Answer: 6

Question: What about the “BPRS Anxiety score” value [16] of the same molecule?
Answer: 1

Question: And the “ECG, safety laboratory analyses and CADSS assessments” value (PPD n=1, ECG 3 hours, laboratory 7 days, CADSS 3 hours, 1 day and 7 days)?
Answer: unremarkable
